Source: paper PMC10807440, “Engineering Novosphingobium aromaticivorans to produce cis,cis-muconic acid from biomass aromatics” (Applied and Environmental Microbiology, 2023)

How the values were obtained:
[1] = target: T1, NadCD (Novosphingobium aromaticivorans, UniProt A4XDW1); test: PCA to catechol conversion by LCMS; type: biochemical; conditions: 1 mM PCA, 0.1 µM enzyme, crude prFMN-containing E. coli lysate needed, 50 mM HEPES, 150 mM NaCl pH 7.5, room temperature (18 h endpoint assay)
T1 construct: gene Saro_3877; Saro_3877-78 cloned together in pVP302K (8x His tag), expressed in E. coli B834 pRARE2, Ni-NTA purified; with protocatechuate decarboxylase subunit D (4-hydroxybenzoate decarboxylase subunit D-like)
T1 sequence (A4XDW1 1-486): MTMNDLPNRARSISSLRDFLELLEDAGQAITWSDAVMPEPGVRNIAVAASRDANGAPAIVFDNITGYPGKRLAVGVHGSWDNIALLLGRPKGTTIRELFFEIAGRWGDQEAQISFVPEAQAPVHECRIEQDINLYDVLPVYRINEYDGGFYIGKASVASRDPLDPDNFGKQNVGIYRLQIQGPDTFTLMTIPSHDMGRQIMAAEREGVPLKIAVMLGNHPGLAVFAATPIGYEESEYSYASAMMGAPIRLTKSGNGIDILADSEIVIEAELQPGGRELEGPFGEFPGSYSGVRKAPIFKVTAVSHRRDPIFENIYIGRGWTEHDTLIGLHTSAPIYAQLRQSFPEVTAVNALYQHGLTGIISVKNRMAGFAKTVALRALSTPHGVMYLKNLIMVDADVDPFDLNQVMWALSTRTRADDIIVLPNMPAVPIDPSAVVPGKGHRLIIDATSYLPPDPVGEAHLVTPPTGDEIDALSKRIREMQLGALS
T1 sequence (A4XDW2 1-74 partner): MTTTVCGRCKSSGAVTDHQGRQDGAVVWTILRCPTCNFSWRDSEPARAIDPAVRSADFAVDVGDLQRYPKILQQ

[2] = target: T2, NaCatA (Novosphingobium aromaticivorans, UniProt A4XFH8); test: ccMA formation by absorbance at […] nm; type: biochemical; conditions: 100 µM catechol, 0.5 µM enzyme, 50 mM HEPES, 150 mM NaCl pH 7.5, 28°C; O2 co-substrate
T2 construct: gene Saro_3830; pVP302K (8x His tag), expressed in E. coli B834 pRARE2 with Fe(II)SO4, Ni-NTA purified
T2 sequence (A4XFH8 1-298): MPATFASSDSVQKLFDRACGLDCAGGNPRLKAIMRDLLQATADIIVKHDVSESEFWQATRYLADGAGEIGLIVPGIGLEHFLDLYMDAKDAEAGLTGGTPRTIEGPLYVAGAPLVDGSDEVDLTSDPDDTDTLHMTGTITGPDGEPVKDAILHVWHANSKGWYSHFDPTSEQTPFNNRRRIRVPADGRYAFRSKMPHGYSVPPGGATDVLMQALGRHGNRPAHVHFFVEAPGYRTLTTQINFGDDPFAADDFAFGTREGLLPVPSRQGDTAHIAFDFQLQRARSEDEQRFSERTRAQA

Compound	PCA to catechol conversion by LCMS [1]	ccMA formation by absorbance at 260 nm [2]
O=C(O)c1ccc(O)c(O)c1 [PCA]	NadCD was mixed with PCA and with the crude E. coli lysate that contained prFMN	
Oc1ccccc1O [catechol]		NaCatA catalyzes the intradiol cleavage of catechol to produce ccMA in vitro
